# Laboratory results reported in the NIST ThermoML archive (doi:10.1016/j.fluid.2014.10.043).
# Numbers after ± are expanded uncertainties.
# Experiments:
# [1] = 293.2 K; 101.33 kPa; Liquid; Vibrating tube method
# [2] = refractive index (Na D-line) (dimensionless); conditions: 293.2 K; 101.33 kPa; Liquid; Standard Abbe refractometry
mass density [1] [kg/m3],refractive index [2],SMILES
782.3 ± 0.61,1.4275 ± 0.0006,CCCCN(CCCC)CCCC [tributylamine]
866.3 ± 0.72,1.4226 ± 0.0006,CCCCCCCCC(=O)OCC [ethyl nonanoate]
1055.25 ± 0.98,1.4135 ± 0.0006,"CCOC(=O)CC(=O)OCC [diethyl 1,3-propanedioate]"
879.18 ± 0.73,1.3918 ± 0.0006,CCCC(=O)OCC [ethyl butanoate]
957.8 ± 0.37,1.3965 ± 0.0005,CCCC(=O)O [butanoic acid]
825.95 ± 0.35,1.428 ± 0.0005,CCCCCCCCO [octan-1-ol]
877.15 ± 0.36,1.4125 ± 0.0005,CCCCC(=O)OCC [ethyl pentanoate]
1027.9 ± 0.93,1.5361 ± 0.0006,CC(=O)c1ccccc1 [acetophenone]
